The target of assay [1] is T1, BRAF V600E (Homo sapiens, UniProt P15056, V600E).
T1 construct: purchased Upstate Biotechnology
Briefly: BRAF V600E biochemical kinase activity assay (AlphaScreen, biotin-MEK1 substrate). Particulars: BRAF V600E biochemical inhibitory activity. The method, then:
Compounds to be tested are diluted in dimethyl sulfoxide to a concentration of 0.1 mM. These are serially diluted 15 μL into 30 μL of dimethyl sulfoxide seven times in 96 well plates for a total of 8 dilution points, and for each dilution point 1 μL is added to a well of an assay plate. […] The reaction is started with addition of 10 μL of 200 μM ATP (i.e. final 100 μM ATP). After incubation of the kinase reaction for 45 minutes at room temperature, 5 μL/well of Stop Solution is added (25 mM Hepes pH 7.5, 100 mM EDTA, 0.01% BSA with donor beads (Streptavidin coated beads, Perkin Elmer), acceptor beads (Protein A coated, Perkin Elmer), and anti-phosphor MEK1/2 antibody (CellSignal), each at final concentration 10 μg/mL). The plates are incubated for 3 hours at room temperature and read on Envision reader (Perkin Elmer). Phosphorylation of Mek1 results in binding of the anti-phosphor-MEK1/2antibody and association of the donor and acceptor beads such that signal correlates with kinase activity. The signal versus compound concentration is used to determine the IC50.
The in vitro RAF kinase activities were determined by measuring phosphorylation of a biotinylated substrate peptide as described previously (Tsai, J. et al. Proc Natl Acad Sci USA 105, 3041-3046 (2008)). Compounds of formula (I), e.g., compound A, was also tested against a panel of 287 kinases at concentrations of 1 μM in duplicate. Kinases inhibited by over 50% were followed up by IC50 determination. The 287 kinases represent all major branches of the kinome phylogenetic tree. The inhibition screen of 287 kinases was carried out under contract as complementary panels at Invitrogen (Life Technologies, Wis., USA) SelectScreen™ profiling service, DiscoverX (CA, USA) KINOMEScan™ service, and Reaction Biology Corporation (PA, USA) Kinase HotSpot℠ service.

For assay [2], the system named is B9 (HRAS Q61L) cell line. Briefly: B9 P-ERK cell activation assay (AlphaScreen). Particulars: Mus musculus; P-ERK cell activation, B9; numeric bounds; read-out: Cell activity (EC50 μM) B9_pERK. Format: cell-based, mouse. On the procedure:
(§1) B9 is a squamous cell carcinoma cell line expressing activated HRAS that was isolated from a DMBA/TPA-induced mouse model of skin carcinogenesis (Stoler, et al. The Journal of Cell Biology, 1993, 122(5), 1103-17). IPC-298 is a human melanoma cell line that expresses activated NRAS (Aubert, et al. International Journal of Cancer, 1993, 54(5), 784-92). To determine whether compounds induce phosphorylated ERK and MEK, cells are plated in a 96-well dish and treated with an 8-point titration of compound for one hour at 37° C. The media is then removed and the cells are incubated with lysis buffer containing protease and phosphatase inhibitors. Phosphorylated ERK and MEK in the resulting lysates is detected using AlphaScreen™ technology. To detect phosphorylated ERK, cell lysates are incubated with streptavidin-coated donor beads, anti-mouse IgG acceptor beads, a biotinylated anti-ERK1/2 rabbit antibody, and a mouse antibody that recognizes ERK1/2 only when it is phosphorylated on Thr202 and Tyr204. The biotinylated ERK1/2 antibody will bind to both the streptavidin-coated donor beads and to ERK1/2 (regardless of its phosphorylation state), and the phospho-ERK1/2 antibody will bind to the acceptor beads and to ERK1/2 that is phosphorylated at Thr202/Tyr204. Excitation of the beads with laser light at 680 nm produces singlet oxygen, which is rapidly quenched unless the beads are in close proximity. When ERK is phosphorylated, both antibodies can bind the same protein, bringing the donor and acceptor beads into close proximity, producing a signal that can be measured at 580 nm. MEK phosphorylation is detected using a similar approach, only with antibodies directed against total MEK1/2 and MEK1/2 that is phosphorylated at Ser217 and Ser221.
(§2) Phospho-ERK AlphaScreen® assay. To determine the effects of compound treatment upon phosphorylation of ERK1/2, cells were plated in a 96-well dish and treated with an 8-point titration of compound for one hour at 37° C. before lysis. To detect pERK, cell lysates were incubated with streptavidin-coated AlphaScreen® donor beads, anti-mouse IgG AlphaScreen® acceptor beads, a biotinylated anti-ERK1/2 rabbit antibody, and a mouse antibody that recognizes ERK1/2 only when it is phosphorylated on Thr202 and Tyr204. The biotinylated ERK1/2 antibody binds to both the streptavidin-coated AlphaScreen® donor beads and to ERK1/2 (regardless of its phosphorylation state), and the phospho-ERK1/2 antibody binds to the acceptor beads and to ERK1/2 that is phosphorylated at Thr202/Tyr204. An increase in ERK1/2 phosphorylation at Thr202/Tyr204 brings the donor and acceptor AlphaScreen® beads into close proximity, generating a signal that can be quantified on an EnVision reader (Perkin Elmer).

In assay [3] the test system is IPC-298 (NRAS Q61L) cell line. Briefly: IPC-298 P-ERK cell activation assay (AlphaScreen). Format: cell-based, human. Particulars: Homo sapiens; P-ERK cell activation, IPC-298; numeric bounds; read-out: Cell activity (EC50 μM) IPC-298_P-ERK. On the procedure: as §1, §2
The subject of assay [4] is A375 (BRAF V600E) cell line. Briefly: A375 P-ERK inhibition assay (AlphaScreen). In kind it is cell-based, human. Particulars: Homo sapiens, A-375; A375_P-ERK. On the procedure: as §2

T1 sequence (P15056 whole entry V600E): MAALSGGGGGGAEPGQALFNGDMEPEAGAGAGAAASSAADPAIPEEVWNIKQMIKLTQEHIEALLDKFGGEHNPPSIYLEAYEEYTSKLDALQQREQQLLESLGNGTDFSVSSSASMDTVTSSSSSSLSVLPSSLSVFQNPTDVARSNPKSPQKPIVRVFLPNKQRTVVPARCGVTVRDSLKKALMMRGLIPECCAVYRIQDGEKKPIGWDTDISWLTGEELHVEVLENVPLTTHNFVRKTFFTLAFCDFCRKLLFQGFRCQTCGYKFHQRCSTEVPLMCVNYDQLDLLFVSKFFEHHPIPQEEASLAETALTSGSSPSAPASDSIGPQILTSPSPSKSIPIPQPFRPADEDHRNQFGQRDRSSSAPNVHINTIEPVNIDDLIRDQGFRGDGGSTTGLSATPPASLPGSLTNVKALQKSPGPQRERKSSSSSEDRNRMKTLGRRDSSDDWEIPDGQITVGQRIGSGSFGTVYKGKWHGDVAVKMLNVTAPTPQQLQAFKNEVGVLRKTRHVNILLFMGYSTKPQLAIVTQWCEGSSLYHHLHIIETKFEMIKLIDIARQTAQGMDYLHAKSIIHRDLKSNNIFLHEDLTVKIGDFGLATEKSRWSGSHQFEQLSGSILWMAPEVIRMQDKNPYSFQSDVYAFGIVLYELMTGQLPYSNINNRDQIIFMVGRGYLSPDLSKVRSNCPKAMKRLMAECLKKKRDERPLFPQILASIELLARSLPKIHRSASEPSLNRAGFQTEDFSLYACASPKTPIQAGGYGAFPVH

In the case of `CC(=O)Nc1ccc(NC(=O)c2c(F)ccc(NS(=O)(=O)C3CCCC3)c2F)cn1` [P-2035, N-(6-acetamido-3-pyridyl)-3-(cyclopentylsulfonylamino)-2,6-difluoro-benzamide], the values for the IC50 in assay [1] and in assay [4] were 0.0001 to 1 µM and 1 to 10 µM, respectively. Besides, the EC50 in assay [2] and in assay [3] was > 10 µM throughout.
For `CC(C)(C)c1nc(-c2cccc(NS(=O)(=O)N3CCCC3)c2F)c(-c2ccnc3[nH]ccc23)s1` [P-2120, N-[3-[2-tert-butyl-5-(1H-pyrrolo[2,3-b]pyridin-4-yl)thiazol-4-yl]-2-fluoro-phenyl]pyrrolidine-1-sulfonamide], the IC50 in assay [1] fell in the range of 0.0001 to 1 µM; in assay [4], 1 to 10 µM. For the same compound, the EC50 in assay [2] and in assay [3] was > 10 µM each time.
For `O=C(c1c(F)ccc(NS(=O)(=O)N2CCOCC2)c1F)c1c[nH]c2ncnc(NCC3CC3)c12` [P-2054, N-[3-[4-(cyclopropylmethylamino)-7H-pyrrolo[2,3-d]pyrimidine-5-carbonyl]-2,4-difluoro-phenyl]morpholine-4-sulfonamide], the IC50 in assay [1] and in assay [4] was 0.0001 to 1 µM each time. Also, the EC50 in assay [2] and in assay [3] was > 10 µM each time.
On to `CCN(C)S(=O)(=O)Nc1cccc(C(=O)c2c[nH]c3ncnc(NC[C@@H]4CCCO4)c23)c1F` [P-2074, 5-[3-[[ethyl(methyl)sulfamoyl]amino]-2-fluoro-benzoyl]-4-[[(2S)-tetrahydrofuran-2-yl]methylamino]-7H-pyrrolo[2,3-d]pyrimidine], for which the IC50 in assay [1] and in assay [4] was 0.0001 to 1 µM throughout. Moreover, the EC50 in assay [2] and in assay [3] was > 10 µM throughout.
Turning to `CCN(C)S(=O)(=O)Nc1cccc(C(=O)c2c[nH]c3ncnc(C4CC4)c23)c1F` [P-2091, 4-cyclopropyl-5-[3-[[ethyl(methyl)sulfamoyl]amino]-2-fluoro-benzoyl]-7H-pyrrolo[2,3-d]pyrimidine], the concentration for half-maximal inhibition (IC50) in assay [1] and in assay [4] was 0.0001 to 1 µM throughout. Moreover, the EC50 in assay [2] and in assay [3] was > 10 µM throughout.
Take `CCN(C)S(=O)(=O)Nc1cccc(C(=O)c2c[nH]c3ncnc(NC4CC4)c23)c1F` [P-2063, 4-(cyclopropylamino)-5-[3-[[ethyl(methyl)sulfamoyl]amino]-2-fluoro-benzoyl]-7H-pyrrolo[2,3-d]pyrimidine]: the IC50 in assay [1] and in assay [4] was 0.0001 to 1 µM in each case. Moreover, the EC50 in assay [2] and in assay [3] was > 10 µM throughout.
On to `CC(C)Nc1ncnc2[nH]cc(C(=O)c3c(F)ccc(NS(=O)(=O)C(C)C)c3F)c12` [P-2037, N-[2,4-difluoro-3-[4-(isopropylamino)-7H-pyrrolo[2,3-d]pyrimidine-5-carbonyl]phenyl]propane-2-sulfonamide], for which the IC50 in assay [1] and in assay [4] was 0.0001 to 1 µM each time. Moreover, the EC50 in assay [2] and in assay [3] was > 10 µM in each case.
On to `C[C@@H](Nc1ncnc2[nH]cc(C(=O)c3cccc(NS(=O)(=O)N4CCCC4)c3F)c12)C1CC1` [P-2094, N-[3-[4-[[(1R)-1-cyclopropylethyl]amino]-7H-pyrrolo[2,3-d]pyrimidine-5-carbonyl]-2-fluoro-phenyl]pyrrolidine-1-sulfonamide], for which the IC50 in assay [1] and in assay [4] was 0.0001 to 1 µM in each case. Moreover, the EC50 in assay [2] and in assay [3] was > 10 µM in each case.
On to `CCN(C)S(=O)(=O)Nc1cccc(C(=O)c2c[nH]c3ncnc(NC(C)C)c23)c1F` [P-2067, 5-[3-[[ethyl(methyl)sulfamoyl]amino]-2-fluoro-benzoyl]-4-(isopropylamino)-7H-pyrrolo[2,3-d]pyrimidine], for which the IC50 in assay [1] and in assay [4] was 0.0001 to 1 µM in each case. The EC50 in assay [2] and in assay [3] was > 10 µM each time.
For the compound `CC(C)Nc1ncnc2[nH]cc(C(=O)c3c(F)ccc(NS(=O)(=O)N4CCOCC4)c3F)c12` [P-2044, N-[2,4-difluoro-3-[4-(isopropylamino)-7H-pyrrolo[2,3-d]pyrimidine-5-carbonyl]phenyl]morpholine-4-sulfonamide], the IC50 in assay [1] and in assay [4] was 0.0001 to 1 µM throughout. Besides, the EC50 in assay [2] and in assay [3] was > 10 µM throughout.
Turning to `CCN(C)S(=O)(=O)Nc1cccc(C(=O)c2c[nH]c3ncnc(NCCCOC)c23)c1F` [P-2115, 5-[3-[[ethyl(methyl)sulfamoyl]amino]-2-fluoro-benzoyl]-4-(3-methoxypropylamino)-7H-pyrrolo[2,3-d]pyrimidine], the IC50 in assay [1] and in assay [4] was 0.0001 to 1 µM in each case. Further, the EC50 in assay [2] and in assay [3] was > 10 µM each time.
As to `CC(=O)Nc1ccc(NC(=O)c2c(F)ccc(NS(=O)(=O)N(C)C)c2F)cn1` [P-2034, N-(6-acetamido-3-pyridyl)-3-(dimethylsulfamoylamino)-2,6-difluoro-benzamide], the IC50 in assay [1] was 0.0001 to 1 µM; in assay [4], 1 to 10 µM. The EC50 in assay [2] and in assay [3] was > 10 µM each time.
Turning to `Cc1cc(NS(=O)(=O)N2CCCC2)c(F)c(C(=O)c2c[nH]c3ncc(-c4cnc(C5CC5)nc4)cc23)c1` [P-2183, N-[3-[5-(2-cyclopropylpyrimidin-5-yl)-1H-pyrrolo[2,3-b]pyridine-3-carbonyl]-2-fluoro-5-methyl-phenyl]pyrrolidine-1-sulfonamide], in assay [1], the IC50 is 0.0001 to 1 µM. The EC50 in assay [2] and in assay [3] was > 10 µM each time.
Consider `Cc1nc2c(-c3sc(C(C)(C)C)nc3-c3cccc(NS(=O)(=O)N4CCCC4)c3F)ccnc2[nH]1` [P-2126, N-[3-[2-tert-butyl-5-(2-methyl-3H-imidazo[4,5-b]pyridin-7-yl)thiazol-4-yl]-2-fluoro-phenyl]pyrrolidine-1-sulfonamide], for which the half-maximal inhibitory concentration (IC50) in assay [1] and in assay [4] was 0.0001 to 1 µM in each case. Also, in assay [2], the EC50 was > 10 µM.
In the case of `Cc1cc(NS(=O)(=O)N2CC[C@@H](F)C2)c(F)c(C(=O)c2c[nH]c3ncc(-c4cnc(C5CC5)nc4)cc23)c1` [P-2182, (3R)-N-[3-[5-(2-cyclopropylpyrimidin-5-yl)-1H-pyrrolo[2,3-b]pyridine-3-carbonyl]-2-fluoro-5-methyl-phenyl]-3-fluoro-pyrrolidine-1-sulfonamide], the IC50 in assay [1] was 0.0001 to 1 µM. The EC50 in assay [2] and in assay [3] was > 10 µM each time.

These data come from US10421761B2, “Compounds for kinase modulation, and indications therefor” (Plexxikon Inc., priority 2013, dated 2019).
